Assay results reported in patent US11787796B2, “Plasma Kallikrein inhibitors and uses thereof” (Takeda Pharmaceutical Company Limited, priority 2019, dated 2023).

Biological target: human activated kallikrein enzyme (Homo sapiens (Human), UniProt P03952)
Assay: Plasma kallikrein inhibition assay with fluorogenic peptide substrate, 500 pM activated kallikrein format
Type: biochemical
Settings: 500 pM activated kallikrein; 300 uM Pro-Phe-Arg-7-amido-4-methylcoumarin substrate; 30 min preincubation, 10 min reaction at RT; read-out: Primary Dose Response Assay: Average EC50
Procedure, shortened: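 Pro-Phe-Arg-7-amido-4-methylcoumarin substrate (300 uM) started reactions after a 30 min RT enzyme–inhibitor preincubation. This format used 500 pM activated human kallikrein in Tris pH 7.5 buffer with EDTA, NaCl, PEG-400 and Triton X-100. AMC fluorescence (380/460 nm) was measured after 10 min at RT.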

Sequence of human activated kallikrein enzyme (P03952 391-638): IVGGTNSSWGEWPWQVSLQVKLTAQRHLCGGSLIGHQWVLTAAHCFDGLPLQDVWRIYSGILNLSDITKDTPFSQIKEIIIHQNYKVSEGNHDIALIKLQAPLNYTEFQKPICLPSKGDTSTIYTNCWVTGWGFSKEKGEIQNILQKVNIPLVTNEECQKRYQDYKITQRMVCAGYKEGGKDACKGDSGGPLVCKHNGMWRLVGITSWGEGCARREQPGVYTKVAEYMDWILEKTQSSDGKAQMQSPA
Sequence of human activated kallikrein enzyme (P03952 20-390 partner): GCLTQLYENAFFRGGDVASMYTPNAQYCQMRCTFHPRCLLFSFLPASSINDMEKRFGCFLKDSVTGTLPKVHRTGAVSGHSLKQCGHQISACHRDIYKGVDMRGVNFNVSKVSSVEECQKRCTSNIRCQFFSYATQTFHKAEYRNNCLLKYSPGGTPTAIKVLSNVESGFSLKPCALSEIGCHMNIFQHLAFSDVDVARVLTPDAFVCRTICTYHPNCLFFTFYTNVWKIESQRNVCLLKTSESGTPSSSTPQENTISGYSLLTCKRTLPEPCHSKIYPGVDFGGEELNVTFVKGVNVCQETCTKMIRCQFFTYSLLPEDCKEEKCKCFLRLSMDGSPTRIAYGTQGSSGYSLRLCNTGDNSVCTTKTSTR

First: O=C(NCc1cc2ccc(Cl)cc2s1)c1cn(Cc2cn3cc(C4CC4)ccc3n2)nn1 [Example I-77, N-((6-chlorobenzo[b]thiophen-2-yl)methyl)-1-((6-cyclopropylimidazo[1,2-a]pyridin-2-yl)methyl)-1H-1,2,3-triazole-4-carboxamide]
Second: O=C(NCc1ccc2sccc2c1)c1cn(Cc2cn3cc(C4CC4)ccc3n2)nn1 [Example I-84, N-(benzo[b]thiophen-5-ylmethyl)-1-((6-cyclopropylimidazo[1,2-a]pyridin-2-yl)methyl)-1H-1,2,3-triazole-4-carboxamide]
The EC50 of the first is higher: over 7100 nM for the first, 100 to 2000 nM for the second.

First: O=C(NCc1c(-n2cnnn2)ccc(C2CC2)c1F)c1cn(Cc2cn3cc(C4CC4)ccc3n2)nn1 [Example I-78, N-(3-cyclopropyl-2-fluoro-6-(1H-tetrazol-1-yl)benzyl)-1-((6-cyclopropylimidazo[1,2-a]pyridin-2-yl)methyl)-1H-1,2,3-triazole-4-carboxamide]
Second: O=C(NCc1c(-n2cnnn2)ccc(Br)c1F)c1cn(Cc2cn3cc(C4CC4)ccc3n2)nn1 [Example I-90, N-(3-bromo-2-fluoro-6-(1H-tetrazol-1-yl)benzyl)-1-((6-cyclopropylimidazo[1,2-a]pyridin-2-yl)methyl)-1H-1,2,3-triazole-4-carboxamide]
The EC50 of the first is higher: 10 to 100 nM for the first, at most 1 nM for the second.

`O=C(NCc1c(C(F)F)ccc(Cl)c1F)c1cn(Cc2cn3cc(C4CC4)ccc3n2)nn1` [Example I-79, N-(3-chloro-6-(difluoromethyl)-2-fluorobenzyl)-1-((6-cyclopropylimidazo[1,2-a]pyridin-2-yl)methyl)-1H-1,2,3-triazole-4-carboxamide] and `COc1ccc(Br)c(CNC(=O)c2cn(Cc3cn4cc(C5CC5)ccc4n3)nn2)c1F` [Example I-102, N-(6-bromo-2-fluoro-3-methoxybenzyl)-1-((6-cyclopropylimidazo[1,2-a]pyridin-2-yl)methyl)-1H-1,2,3-triazole-4-carboxamide] fall in the same range of EC50: 10 to 100 nM for the first, 10 to 100 nM for the second.

First: Cc1c(Cl)ccc(-n2cnnn2)c1CNC(=O)c1cn(Cc2cn3cc(C4CC4)ccc3n2)nn1 [Example I-80, N-(3-chloro-2-methyl-6-(1H-tetrazol-1-yl)benzyl)-1-((6-cyclopropylimidazo[1,2-a]pyridin-2-yl)methyl)-1H-1,2,3-triazole-4-carboxamide]
Second: CCc1ccc(-n2cnnn2)c(CNC(=O)c2cn(Cc3cn4cc(C5CC5)ccc4n3)nn2)c1F [Example I-83, 1-((6-cyclopropylimidazo[1,2-a]pyridin-2-yl)methyl)-N-(3-ethyl-2-fluoro-6-(1H-tetrazol-1-yl)benzyl)-1H-1,2,3-triazole-4-carboxamide]
The EC50 of the first is higher: 100 to 2000 nM for the first, 10 to 100 nM for the second. The second is the more potent here.

`COc1ccc(-n2cnnn2)c(CNC(=O)c2cn(Cc3cn4cc(C5CC5)cc(CC(C)(C)C(=O)O)c4n3)nn2)c1F` [Example I-81, 3-(6-cyclopropyl-2-((4-((2-fluoro-3-methoxy-6-(1H-tetrazol-1-yl)benzyl)carbamoyl)-1H-1,2,3-triazol-1-yl)methyl)imidazo[1,2-a]pyridin-8-yl)-2,2-dimethylpropanoic acid] and `CCOC(=O)C(C)(C)Cc1cc(C2CC2)cn2cc(Cn3cc(C(=O)NCc4c(-n5cnnn5)ccc(OC)c4F)nn3)nc12` [Example I-85, ethyl 3-(6-cyclopropyl-2-((4-((2-fluoro-3-methoxy-6-(1H-tetrazol-1-yl)benzyl)carbamoyl)-1H-1,2,3-triazol-1-yl)methyl)imidazo[1,2-a]pyridin-8-yl)-2,2-dimethylpropanoate] cannot be ordered by EC50: at most 1 nM for the first, at most 1 nM for the second.

`COc1ccc(-c2ccnnc2)c(CNC(=O)c2cn(Cc3cn4cc(C5CC5)ccc4n3)nn2)c1F` [Example I-86, 1-((6-cyclopropylimidazo[1,2-a]pyridin-2-yl)methyl)-N-(2-fluoro-3-methoxy-6-(pyridazin-4-yl)benzyl)-1H-1,2,3-triazole-4-carboxamide] and `COc1ccc(-c2ccncc2)c(CNC(=O)c2cn(Cc3cn4cc(C5CC5)ccc4n3)nn2)c1F` [Example I-101, 1-((6-cyclopropylimidazo[1,2-a]pyridin-2-yl)methyl)-N-(2-fluoro-3-methoxy-6-(pyridin-4-yl)benzyl)-1H-1,2,3-triazole-4-carboxamide] fall in the same range of EC50: 1 to 10 nM for the first, 1 to 10 nM for the second.

First: COC(=O)c1ccc(-c2ccc(OC)c(F)c2CNC(=O)c2cn(Cc3cn4cc(C5CC5)ccc4n3)nn2)cc1 [Example I-87, Methyl 2′-((1-((6-cyclopropylimidazo[1,2-a]pyridin-2-yl)methyl)-1H-1,2,3-triazole-4-carboxamido)methyl)-3′-fluoro-4′-methoxy-[1,1′-biphenyl]-4-carboxylate]
Second: COc1ccc(-c2ccc(C(=O)O)cc2)c(CNC(=O)c2cn(Cc3cn4cc(C5CC5)ccc4n3)nn2)c1F [Example I-88, 2′-((1-((6-cyclopropylimidazo[1,2-a]pyridin-2-yl)methyl)-1H-1,2,3-triazole-4-carboxamido)methyl)-3′-fluoro-4′-methoxy-[1,1′-biphenyl]-4-carboxylic acid]
The EC50 of the first is higher: 10 to 100 nM for the first, 1 to 10 nM for the second.

`CCOC(=O)CCc1cc(C2CC2)cn2cc(Cn3cc(C(=O)NCc4c(-n5cnnn5)ccc(OC)c4F)nn3)nc12` [Example I-89, ethyl 3-(6-cyclopropyl-2-((4-((2-fluoro-3-methoxy-6-(1H-tetrazol-1-yl)benzyl)carbamoyl)-1H-1,2,3-triazol-1-yl)methyl)imidazo[1,2-a]pyridin-8-yl)propanoate] and `COc1ccc(-n2cnnn2)c(CNC(=O)c2cn(Cc3cn4cc(C5CC5)cc(CCC(=O)O)c4n3)nn2)c1F` [Example I-92, 3-(6-cyclopropyl-2-((4-((2-fluoro-3-methoxy-6-(1H-tetrazol-1-yl)benzyl)carbamoyl)-1H-1,2,3-triazol-1-yl)methyl)imidazo[1,2-a]pyridin-8-yl)propanoic acid] cannot be ordered by EC50: at most 1 nM for the first, at most 1 nM for the second.

`COc1ccc(-n2cnnn2)c(CNC(=O)c2cn(Cc3cn4cc(C5CC5)cc(C5(F)COC5)c4n3)nn2)c1F` [Example I-91, 1-((6-cyclopropyl-8-(3-fluorooxetan-3-yl)imidazo[1,2-a]pyridin-2-yl)methyl)-N-(2-fluoro-3-methoxy-6-(1H-tetrazol-1-yl)benzyl)-1H-1,2,3-triazole-4-carboxamide] and `COc1ccc(-n2cnnn2)c(CNC(=O)c2cn(Cc3cn4cc(C5CC5)cc(F)c4n3)nn2)c1F` [Example I-99, 1-((6-cyclopropyl-8-fluoroimidazo[1,2-a]pyridin-2-yl)methyl)-N-(2-fluoro-3-methoxy-6-(1H-tetrazol-1-yl)benzyl)-1H-1,2,3-triazole-4-carboxamide] cannot be ordered by EC50: at most 1 nM for the first, at most 1 nM for the second.

`COc1ccc(-n2cnnn2)c(CNC(=O)c2cn(Cc3cn4cc(C5CC5)cc(C(F)(F)F)c4n3)nn2)c1F` [Example I-93, 1-((6-cyclopropyl-8-(trifluoromethyl)imidazo[1,2-a]pyridin-2-yl)methyl)-N-(2-fluoro-3-methoxy-6-(1H-tetrazol-1-yl)benzyl)-1H-1,2,3-triazole-4-carboxamide] and `COc1ccc(-n2cnnn2)c(CNC(=O)c2cn(Cc3cn4cc(C5CC5)ccc4n3)nn2)c1F` [Example I-105, 1-((6-cyclopropylimidazo[1,2-a]pyridin-2-yl)methyl)-N-(2-fluoro-3-methoxy-6-(1H-tetrazol-1-yl)benzyl)-1H-1,2,3-triazole-4-carboxamide] cannot be ordered by EC50: at most 1 nM for the first, at most 1 nM for the second.

First: COc1ccc(-n2cnnn2)c(CNC(=O)c2nnc(Cc3cn4cc(C5CC5)ccc4n3)o2)c1F [Example I-94, 5-((6-cyclopropylimidazo[1,2-a]pyridin-2-yl)methyl)-N-(2-fluoro-3-methoxy-6-(1H-tetrazol-1-yl)benzyl)-1,3,4-oxadiazole-2-carboxamide]
Second: O=C(NCc1c(-n2cnnn2)ccc(OC(F)(F)F)c1F)c1cn(Cc2cn3cc(C4CC4)ccc3n2)nn1 [Example I-98, 1-((6-cyclopropylimidazo[1,2-a]pyridin-2-yl)methyl)-N-(2-fluoro-6-(1H-tetrazol-1-yl)-3-(trifluoromethoxy)benzyl)-1H-1,2,3-triazole-4-carboxamide]
The EC50 of the first is lower: at most 1 nM for the first, 100 to 2000 nM for the second.

`COc1ccc(-n2cccn2)c(CNC(=O)c2cn(Cc3cn4cc(C5CC5)ccc4n3)nn2)c1F` [Example I-95, 1-((6-cyclopropylimidazo[1,2-a]pyridin-2-yl)methyl)-N-(2-fluoro-3-methoxy-6-(1H-pyrazol-1-yl)benzyl)-1H-1,2,3-triazole-4-carboxamide] and `COc1ccc(-n2ccnc2)c(CNC(=O)c2cn(Cc3cn4cc(C5CC5)ccc4n3)nn2)c1F` [Example I-104, 1-((6-cyclopropylimidazo[1,2-a]pyridin-2-yl)methyl)-N-(2-fluoro-6-(1H-imidazol-1-yl)-3-methoxybenzyl)-1H-1,2,3-triazole-4-carboxamide] fall in the same range of EC50: 1 to 10 nM for the first, 1 to 10 nM for the second.

First: COc1ccc(-n2cnnc2)c(CNC(=O)c2cn(Cc3cn4cc(C5CC5)ccc4n3)nn2)c1F [Example I-96, 1-((6-cyclopropylimidazo[1,2-a]pyridin-2-yl)methyl)-N-(2-fluoro-3-methoxy-6-(4H-1,2,4-triazol-4-yl)benzyl)-1H-1,2,3-triazole-4-carboxamide]
Second: COc1ccc(-c2nnco2)c(CNC(=O)c2cn(Cc3cn4cc(C5CC5)ccc4n3)nn2)c1F [Example I-97, 1-((6-cyclopropylimidazo[1,2-a]pyridin-2-yl)methyl)-N-(2-fluoro-3-methoxy-6-(1,3,4-oxadiazol-2-yl)benzyl)-1H-1,2,3-triazole-4-carboxamide]
The EC50 of the first is lower: 1 to 10 nM for the first, 10 to 100 nM for the second.

Compared with `COc1cccc(CNC(=O)c2cn(Cc3cn4cc(C5CC5)ccc4n3)nn2)c1F` [Example I-100, 1-((6-cyclopropylimidazo[1,2-a]pyridin-2-yl)methyl)-N-(2-fluoro-3-methoxybenzyl)-1H-1,2,3-triazole-4-carboxamide], `Cc1cc(C(=N)N)cc(C)c1CNC(=O)c1cnn(Cc2cn3cc(C4CC4)ccc3n2)c1` [Example I-103, N-(4-carbamimidoyl-2,6-dimethylbenzyl)-1-((6-cyclopropylimidazo[1,2-a]pyridin-2-yl)methyl)-1H-pyrazole-4-carboxamide] is lower in EC50: 100 to 2000 nM for the first, at most 1 nM for the second.
